Reference: patent US4657861A, “S-tetrahydroprotoberberineoxidase, process for producing the same and use thereof” (priority 1984, dated 1987)
Read-outs that look alike come from different tables or passages of the source.

Tests used:
[1] = target: T1, S-tetrahydroprotoberberineoxidase (Berberis wilsoniae, UniProt F1BVB6); assay: Enzymatic oxidation of R,S-substrates with S-tetrahydroprotoberberineoxidase preparation, photometric analysis; conditions: 37° C.; for Conversion of S-form into oxidized product: pH=8.9, admission of air; for Fate of R-form under enzymatic oxidation: pH=8.9
[2] = target: T1, S-tetrahydroprotoberberineoxidase; assay: Inhibition of S-tetrahydroprotoberberineoxidase; type: biochemical, Berberis wilsonae var. subcaulialata; design: S-tetrahydroprotoberberineoxidase can be obtained by extraction from plant materials; from tissue; host or cells: plant material (Berberis wilsoniae inferred)
[3] = target: T1, S-tetrahydroprotoberberineoxidase; conditions: pH 8.9
[4] = target: T1, S-tetrahydroprotoberberineoxidase; assay: KM value of S-tetrahydroprotoberberineoxidase for substrate; type: biochemical, Berberis wilsonae var. subcaulialata; design: S-tetrahydroprotoberberineoxidase can be obtained by extraction from plant materials; from tissue; host or cells: plant material (Berberis wilsoniae inferred); conditions: at 40° C. and pH 8.9
Description: KM value for R,S-corypalmine at 40° C. and pH 8.9, 1.3 μMoles

[5] = target: T2, S-tetrahydroprotoberberineoxidase immobilized on calcium alginate (Berberis wilsoniae, UniProt F1BVB6); assay: Enzymatic oxidation with S-tetrahydroprotoberberineoxidase immobilized on calcium alginate, photometric analysis; type: biochemical, Berberis wilsonae var. subcaulialata; conditions: immobilized enzyme, 30° C., 150 hours, pH=8.9, admission of air
T2 construct: S-tetrahydroprotoberberineoxidase can be obtained by extraction from plant materials; from tissue; host or cells: plant material (Berberis wilsoniae inferred)
T2 sequence (F1BVB6 25-530): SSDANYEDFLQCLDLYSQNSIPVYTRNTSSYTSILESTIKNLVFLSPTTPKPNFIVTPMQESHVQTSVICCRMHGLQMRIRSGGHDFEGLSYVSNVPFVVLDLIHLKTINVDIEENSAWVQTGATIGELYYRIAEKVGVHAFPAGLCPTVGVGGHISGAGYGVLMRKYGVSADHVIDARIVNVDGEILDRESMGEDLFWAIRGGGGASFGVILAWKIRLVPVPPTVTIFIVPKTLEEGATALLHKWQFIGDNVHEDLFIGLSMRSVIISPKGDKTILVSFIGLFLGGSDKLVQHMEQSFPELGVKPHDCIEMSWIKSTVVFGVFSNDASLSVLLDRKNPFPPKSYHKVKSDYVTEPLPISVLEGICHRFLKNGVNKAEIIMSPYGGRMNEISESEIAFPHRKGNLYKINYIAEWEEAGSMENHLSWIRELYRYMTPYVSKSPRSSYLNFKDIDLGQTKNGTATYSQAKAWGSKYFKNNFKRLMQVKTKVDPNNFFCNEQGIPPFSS

Compound: COc1ccc2c(c1OC)CN1CCc3cc4c(cc3[C@@H]1C2)OCO4 [S-canadine]
- Conversion of S-form into oxidized product ([1]; after 2 hours): 100%

Compound: CC(=O)CC(C)=O [acetylacetone]
- Inhibition of the enzyme in the presence of the substance [2]: Complete and reversible inhibition

Compound: COc1ccc2c(c1)CCN[C@H]2Cc1cc(O)cc(O)c1 [S-[1-(3',5'-dihydroxy-benzyl)-6-methoxy-1,2,3,4-tetrahydroisoquinoline]]
- Conversion of S-form into oxidized product ([3]; 16 h): 100%

Compound: COc1cc2c(cc1O)CCN1Cc3c(ccc(OC)c3OC)C[C@H]21 [R-corypalmine]
- Fate of R-form under enzymatic oxidation ([1]; after 2 hours): remained unchanged

Compound: O=c1c(O)c(-c2ccc(O)cc2O)oc2cc(O)cc(O)c12 [morin]
- Inhibition of the enzyme in the presence of the substance [2]: Complete and reversible inhibition

Compound: COc1ccc2c(c1)CCN[C@@H]2Cc1cc(O)cc(O)c1 [R-form]
- Fate of R-form under enzymatic oxidation ([1]; after 16 hours): remained unchanged

Compound: COc1cc2c(cc1O)CCN1Cc3c(ccc(OC)c3OC)CC21 (racemic) [R,S-corypalmine]
- Km [4]: 1.3 µM

Compound: COc1ccc2c(c1OC)CN1CCc3cc4c(cc3[C@H]1C2)OCO4 [R-canadine]
- Fate of R-form under enzymatic oxidation ([1]; after 2 hours): remained unchanged

Compound: COc1cc2c(cc1O)CCN1Cc3c(ccc(OC)c3OC)C[C@@H]21 [S-corypalmine]
- Conversion of S-form into oxidized product ([3]; 2 h): 100%

Compound: COc1ccc(C[C@H]2NCCc3cc(OC)c(O)cc32)cc1O [R-norreticuline]
- Fate of R-form under enzymatic oxidation ([1]; after 16 hours): remained unchanged

Compound: COc1ccc(C[C@@H]2NCCc3cc(OC)c(O)cc32)cc1O [S-norreticuline]
- Conversion to 1,2-dehydronorreticuline [5]: complete conversion
- Conversion of S-form into oxidized product ([1]; after 16 hours): 100%
